Where “and” joins values, the source holds several entries; their conditions need not be identical. Identical values can stand only once.
Assays:
Solubility in water = assay type: physicochemical
Protocol: The solubility of compounds of formula (I) in water was measured and compared with that of compounds of formula (I′).
More specifically, 4-[{[3-(6-{[(3S)-3-(morpholin-4-ylmethyl)-3,4-dihydroisoquinolin-2(1H)-yl]carbonyl}-1,3-benzodioxol-5-yl)-5,6,7,8-tetrahydroindolizin-1-yl]carbonyl}-(phenyl)amino]phenyl disodium phosphate (also referred to as the compound of Example 1) was tested and compared to N-(4-hydroxyphenyl)-3-{6-[((3S)-3-(4-morpholinylmethyl)-3,4-dihydro-2(1H)-isoquinolinyl)carbonyl]-1,3-benzodioxol-5-yl}-N-phenyl-5,6,7,8-tetrahydro-1-indolizine carboxamide (also referred to as the drug from Example 1).
The solubilities of the compounds were also measured in a medium buffered to physiological pH (cf. Table 3).

[1] = Pharmacokinetic profile in the Wistar rat, lipid versus aqueous formulation; assay type: in vivo, male Wistar rats; settings: Drug from Example 1 administered 100 mg/kg p.o., plasma
Protocol: The pharmacokinetic profile of N-(4-hydroxyphenyl)-3-{6-[((3S)-3-(4-morpholinyl-methyl)-3,4-dihydro-2(1H)-isoquinolinyl)carbonyl]-1,3-benzodioxol-5-yl}-N-phenyl-5,6,7,8-tetrahydro-1-indolizine carboxamide (also referred to as the drug from Example 1) is also evaluated in a lipid and aqueous formulation in the Wistar rat.
The drug from Example 1 is prepared in an aqueous suspension in hydroxyethylcellulose 1% (w/v) in water and compared to a lipid formulation composed of a mixture of anhydrous ethanol/polyethylene glycol 400/Phosal 50PG ([…], v/v/v). The two formulations are administered by the oral route to male Wistar rats (3 rats per formulation) at a dose of 100 mg/kg p.o. (gavage, 10 mL/kg).
Blood samples are taken at the following points in time from each animal (3 animals/point in time): 0.25 hr, 0.5 hr, 0.75 hr, 1 hr, 2 hrs, 4 hrs, 8 hrs and 24 hrs after oral administration.
The plasma concentrations of the tested compound are determined after extraction followed by liquid chromatography coupled with mass spectrometric detection. The limit of quantification is 0.1 ng/mL.

human Caco-2 cells = experiment: In vitro test on human Caco-2 cells, cellular transport A to B; assay type: in vitro ADME; settings: drug incubated and measured, 120 minutes
In short: (§1)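 Apical-to-basolateral transport, prodrug or drug dosed apically at 1 or 3 μM in duplicate for 120 minutes. Apical samples at 0 and 120 min and basolateral samples at 120 min quantified by LC-MS/MS (LOQ 2 ng/mL) for prodrug and drug. Papp, predicted human Fabs and percent recovery calculated.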

[2] = as above; assay type: in vitro ADME; settings: human, Caco-2, drug incubated and measured, A to B, 1 or 3 μM, read-out: Papp, the drug after incubation of the drug
In short: as §1

[3] = aqueous formulation (suspension in hydroxyethylcellulose 1% in water)
[4] = lipid formulation (anhydrous ethanol/polyethylene glycol 400/Phosal 50PG)

solubility (Solubility in water): 40 µg/mL and 56.2 µM
AUCt, compound measured: Drug from Example 1 [1, 3]: AUCt (ng · h/mL) = 3480
Cmax, compound measured: Drug from Example 1 [1, 3]: Cmax (ng/mL) = 816
AUCt, compound measured: Drug from Example 1 [1, 4]: AUCt (ng · h/mL) = 42900
Cmax, compound measured: Drug from Example 1 [1, 4]: Cmax (ng/mL) = 5070
Yield (experiment yield), the drug after incubation of the drug (human Caco-2 cells): Yield (%) = 37
Fabs (predicted absorbed fraction in humans), the drug after incubation of the drug (human Caco-2 cells; A to B, 1 or 3 μM): Fabs (%) = 67
Papp A→B at 120 min [2]: 0.65 ×10⁻⁶ cm/s
SMILES: O=C(c1cc(-c2cc3c(cc2C(=O)N2Cc4ccccc4C[C@H]2CN2CCOCC2)OCO3)n2c1CCCC2)N(c1ccccc1)c1ccc(O)cc1 [Drug from Example 1, N-(4-hydroxyphenyl)-3-{6-[((3S)-3-(4-morpholinylmethyl)-3,4-dihydro-2(1H)-isoquinolinyl)carbonyl]-1,3-benzodioxol-5-yl}-N-phenyl-5,6,7,8-tetrahydro-1-indolizine carboxamide]
